According to PMC3742231 (International Journal of Molecular Sciences, 2013):
Like-named read-outs stand apart in the source and are kept apart here.

Assays:
CYP2C8 = target: T1, CYP2C8 (Homo sapiens, UniProt P10632); experiment: N-in-one CYP inhibition assay in human liver microsomes; type of inhibition
T1 sequence (P10632 1-490): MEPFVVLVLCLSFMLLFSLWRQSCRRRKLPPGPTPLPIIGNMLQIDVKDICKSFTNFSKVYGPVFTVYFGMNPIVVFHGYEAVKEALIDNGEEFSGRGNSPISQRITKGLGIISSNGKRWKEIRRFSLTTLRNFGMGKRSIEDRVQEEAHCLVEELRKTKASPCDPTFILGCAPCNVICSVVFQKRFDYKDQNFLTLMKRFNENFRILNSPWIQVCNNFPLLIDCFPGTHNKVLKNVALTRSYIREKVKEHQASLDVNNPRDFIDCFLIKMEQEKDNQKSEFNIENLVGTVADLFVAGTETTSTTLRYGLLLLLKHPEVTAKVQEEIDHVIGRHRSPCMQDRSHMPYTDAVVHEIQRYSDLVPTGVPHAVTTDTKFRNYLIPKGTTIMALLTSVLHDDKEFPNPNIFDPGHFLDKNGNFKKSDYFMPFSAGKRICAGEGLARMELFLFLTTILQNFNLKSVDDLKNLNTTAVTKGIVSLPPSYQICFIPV
Protocol: (§1) Human liver microsomes were prepared and pooled from ten human livers (HL20–24,28–32) as previously described. Human liver samples were obtained from the University Hospital of Oulu as surplus tissue from cadaver kidney transplant donors. The collection of surplus tissue was approved by the Ethics Committee of the Medical Faculty of the University of Oulu, Finland. All donors were Caucasians ranging in age from 21 to 62 years; four were female and six were male. Detailed information on each donor has been published previously. Protein concentrations were measured using the Bradford method.
(§2) In vitro inhibition of CYP isoforms was first assessed using the N-in-one approach (also called the cocktail approach). CYP-selective substrates and reactions are listed in Table 1; concentrations were roughly at or below the respective Michaelis-Menten coefficients. […] A Micromass LCT time-of-flight high-resolution mass spectrometer (Micromass Ltd., Manchester, UK) equipped with a Z-spray electrospray ionization source was used for the monitoring of CYP-selective reactions. Integrated mass chromatogram peak areas were normalized versus internal standards before comparing metabolites in different preparations. More details of the assay are available in previous publications.
(§3) Dixon, Lineweaver-Burk, Hanes, and Hofstee plots were used for the analysis of the type of inhibition.

CYP2D6 = CYP2D6 (Homo sapiens, UniProt P10635); experiment: as above
Chain of CYP2D6 (P10635 whole entry): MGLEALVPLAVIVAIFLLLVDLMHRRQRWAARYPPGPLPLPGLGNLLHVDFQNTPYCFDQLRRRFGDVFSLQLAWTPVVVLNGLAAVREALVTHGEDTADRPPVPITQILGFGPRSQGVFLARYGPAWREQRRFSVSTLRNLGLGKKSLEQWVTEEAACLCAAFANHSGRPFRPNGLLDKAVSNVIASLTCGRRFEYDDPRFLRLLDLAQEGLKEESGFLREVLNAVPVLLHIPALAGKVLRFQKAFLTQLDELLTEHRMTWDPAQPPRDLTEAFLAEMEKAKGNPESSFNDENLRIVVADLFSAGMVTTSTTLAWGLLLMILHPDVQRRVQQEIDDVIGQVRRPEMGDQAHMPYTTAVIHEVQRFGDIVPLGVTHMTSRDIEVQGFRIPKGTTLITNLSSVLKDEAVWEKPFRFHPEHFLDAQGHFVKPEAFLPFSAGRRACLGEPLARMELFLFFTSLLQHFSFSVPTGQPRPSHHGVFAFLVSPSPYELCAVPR
Protocol: as §1, §2, §3

CYP2A6 = target: T2, CYP2A6 (Homo sapiens, UniProt P11509); experiment: N-in-one CYP inhibition assay in human liver microsomes
T2 sequence (P11509 1-494): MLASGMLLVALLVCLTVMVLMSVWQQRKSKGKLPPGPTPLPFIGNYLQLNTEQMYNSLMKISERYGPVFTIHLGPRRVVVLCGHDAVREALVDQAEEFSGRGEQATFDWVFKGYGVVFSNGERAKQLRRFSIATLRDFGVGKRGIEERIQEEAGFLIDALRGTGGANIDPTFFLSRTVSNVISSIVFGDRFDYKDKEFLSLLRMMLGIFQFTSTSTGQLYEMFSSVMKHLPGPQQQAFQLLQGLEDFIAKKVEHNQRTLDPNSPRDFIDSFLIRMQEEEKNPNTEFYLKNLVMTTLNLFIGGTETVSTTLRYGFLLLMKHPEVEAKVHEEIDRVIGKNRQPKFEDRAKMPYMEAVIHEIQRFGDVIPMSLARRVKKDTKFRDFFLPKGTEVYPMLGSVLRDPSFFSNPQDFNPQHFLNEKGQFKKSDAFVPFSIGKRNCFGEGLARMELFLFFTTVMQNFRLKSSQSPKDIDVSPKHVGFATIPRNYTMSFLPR
Protocol: as §1, §2

CYP2E1 = CYP2E1 (Homo sapiens, UniProt P05181); experiment: as above
Chain of CYP2E1 (P05181 whole entry): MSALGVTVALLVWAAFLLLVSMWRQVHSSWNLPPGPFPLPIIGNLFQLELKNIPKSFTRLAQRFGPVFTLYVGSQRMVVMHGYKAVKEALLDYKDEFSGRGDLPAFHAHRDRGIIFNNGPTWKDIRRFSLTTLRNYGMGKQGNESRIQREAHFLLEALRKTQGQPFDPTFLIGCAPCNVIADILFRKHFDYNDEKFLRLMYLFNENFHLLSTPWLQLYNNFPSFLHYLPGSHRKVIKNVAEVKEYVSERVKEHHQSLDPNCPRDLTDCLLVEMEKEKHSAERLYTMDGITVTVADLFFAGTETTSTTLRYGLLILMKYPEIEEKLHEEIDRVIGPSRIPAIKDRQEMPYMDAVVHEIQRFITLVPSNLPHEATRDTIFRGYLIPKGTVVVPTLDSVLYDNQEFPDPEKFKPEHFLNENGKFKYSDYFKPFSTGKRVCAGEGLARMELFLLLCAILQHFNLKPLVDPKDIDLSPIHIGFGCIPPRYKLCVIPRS
Protocol: as §1, §2

CYP3A4 [1] = target: CYP3A4 (Homo sapiens, UniProt P08684); experiment: biochemical; settings: human liver microsomes
Chain of CYP3A4 (Homo sapiens, UniProt P08684) (P08684 whole entry): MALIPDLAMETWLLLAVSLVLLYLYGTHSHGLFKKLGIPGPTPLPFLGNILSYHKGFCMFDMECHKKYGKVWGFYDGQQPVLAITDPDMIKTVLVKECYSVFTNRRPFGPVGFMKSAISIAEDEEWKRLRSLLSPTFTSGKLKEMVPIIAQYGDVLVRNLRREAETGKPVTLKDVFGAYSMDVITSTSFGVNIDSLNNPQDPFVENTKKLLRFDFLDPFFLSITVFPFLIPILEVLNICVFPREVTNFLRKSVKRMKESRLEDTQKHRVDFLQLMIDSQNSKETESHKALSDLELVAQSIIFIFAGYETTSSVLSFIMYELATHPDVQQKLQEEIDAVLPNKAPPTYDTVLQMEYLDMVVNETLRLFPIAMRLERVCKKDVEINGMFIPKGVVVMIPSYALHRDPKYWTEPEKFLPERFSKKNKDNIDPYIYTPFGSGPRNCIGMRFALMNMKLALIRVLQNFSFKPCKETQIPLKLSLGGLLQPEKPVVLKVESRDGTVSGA
Protocol: as §1, §2

CYP enzyme activities = settings: cultured human hepatocytes
Protocol: (§4) Freshly isolated human hepatocytes were obtained from the UK Human Tissue Bank (Leicester, UK).
(§5) Omeprazole (CYP1A2 inducer; 30 μM), phenobarbital (CYP2B6 inducer; 1 mM) and rifampicin (CYP2C9, CYP2C19, and CYP3A4 inducer; 50 μM) dissolved in dimethyl sulfoxide (0.5% v/v final), served as reference inducers.

CYP1A2 = settings: 0.2, 2 and 20 μM for 48 h
Protocol: as §4, §5

CYP2B6 = settings: 20 μM, 48 h
Protocol: as §4, §5

CYP2C19 = settings: 0.2, 2 and 20 μM for 48 h
Protocol: as §4, §5

CYP2C9 = settings: 0.2, 2 and 20 μM for 48 h
Protocol: as §4, §5

CYP3A4 [2] = settings: 20 μM, 48 h
Protocol: as §4, §5

[3] = Overall safety in the three clinical studies; type: in vivo, human; settings: healthy postmenopausal women, with and without ospemifene
Text: All experiments with human subjects were based on voluntary informed consent and the clinical study protocols had appropriate ethical and regulatory approval. Subjects were asked to immediately report any significant adverse events (AEs) that occurred during the study; minor AEs were reported at clinic visits. AEs were coded and classified according to the Medical Dictionary for Regulatory Activities.

[4] = cited from earlier work
[5] = ref data on file, cited from earlier work
[6] = steady state, converted from ng/mL

SMILES: OCCOc1ccc(/C(=C(/CCCl)c2ccccc2)c2ccccc2)cc1 [Ospemifene]
- IC50 (CYP2C8): 36.4 µM
- Type of inhibition (CYP2C8; results not shown): likely competitive
- IC50 (CYP2D6): 48.7 µM
- Type of inhibition (CYP2D6; results not shown): competitive
- IC50 (CYP2A6): > 100 µM
- IC50 (CYP2E1): > 100 µM
- IC50 (CYP3A4 [1]; IC50, Midazolam 1′-hydroxylation, probe 0.4 μM): > 100 µM
- IC50 (CYP3A4 [1]; IC50, Omeprazole 3-hydroxylation, probe 2 μM): 37.9 µM
- IC50 (CYP3A4 [1]; IC50, Omeprazole sulfoxidation, probe 2 μM): > 100 µM
- IC50 (CYP3A4 [1]; IC50, Testosterone 6β-hydroxylation, probe 1 μM): > 100 µM
- Induction of CYPs (CYP enzyme activities): ≤ 2.4 fold
- Change in CYP1A2 activity (CYP1A2): did not cause any relevant changes
- Induction of CYP2B6 activity (CYP2B6): approximately two-fold
- Change in CYP2C19 activity (CYP2C19): did not cause any relevant changes
- Change in CYP2C9 activity (CYP2C9): did not cause any relevant changes
- Induction of CYP3A4 activity (CYP3A4 [2]): approximately two-fold
- Tolerability [3]: well tolerated
- average plasma half-life ([4]; introduction, no reference given): about 20 h
- Cav at steady state [4, 6]: ~600 nM
- Cmin at steady state [4, 6]: ~250 nM
- Cmax ([4]; steady state, converted from ng/mL, read-out: mean Cmax at steady state): ~2000 nM
- Cav at steady state ([4]; steady state): 227 ng/mL
- Cmin at steady state ([4]; steady state): 94 ng/mL
- mean Cmax at steady state ([4]; steady state): 785 ng/mL
- Change of serum concentrations of ospemifene ([5]; fluconazole pretreatment): increased
- Change of serum concentrations of ospemifene ([5]; ketoconazole pretreatment): increased
- Change of serum concentrations of ospemifene ([5]; omeprazole pretreatment): minimally changed
- Change of serum concentrations of ospemifene ([5]; rifampicin pretreatment): reduced
